Experimental findings from patent US20240067632A1, “WEE1 Degrading Compounds and Uses Thereof” (Bristol-Myers Squibb Company, priority 2022, published 2024) are described below.

In one assay the test system is MKN45 cells. In words: MKN45 cell proliferation assay (Cell-Titer-Glo, 120 h). The following applies: for pEC50: Homo sapiens, MKN-45, 120 h, Cell-Titer-Glo, growth inhibition, read-out: MKN45 Cell Prolif. 120 hr (EC50); for MKN45 Cell Prolif. 120 hr (Ymin-Obs): minimal percent of DMSO control observed in the concentrations tested. The assay is classed as cell-based. The procedure, abridged:
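Cells seeded at 400/well onto pre-printed 10-point half-log dilutions (top 1 or 10 uM, 0.1% DMSO final), in triplicate, and grown 120 h at 37 C. Viability by Cell-Titer-Glo luminescence, blank-subtracted and normalised to DMSO; EC50 from four-parameter logistic fit, with observed minimal % of control recorded as Ymin-obs.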

The next assay has as its target T1, WEE1 (Homo sapiens, UniProt P30291+Q96SW2).
T1 construct: C-terminal ePL-tagged (DiscoverX, Fremont, CA) full-length WEE1 expression construct; expressed in transfected cells; host or cells: LentiX-HEK293T (Invitrogen), lentiviral transduction; co-expressing GSPT1-GN (G576N, lacking the first 158 amino acids)
In words: WEE1-ePL degradation assay (LentiX-WEE1-ePL-GSPT1-ND cells, InCELL Hunter luminescence, 4 h). The assay is classed as cell-based. The note with it: 293T-LentiX WEE1-ePL cells; for 293T-LentiX WEE1-ePL Degradation 4 hr (Ymin): lower limit of the fit (0 = luciferase inhibitor, Ymax = DMSO control); for DC50: read-out: 293T-LentiX WEE1-ePL Degradation 4 hr (EC50). An outline of the steps:
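Degradation EC50 was fitted by a four-parameter logistic model, with the upper limit taken from DMSO wells. Luminescence was read with InCELL Hunter reagent after 30 min at room temperature, following a 4 h, 37° C exposure of 2500 cells/well. Cells were LentiX-HEK293T carrying ePL-tagged full-length WEE1, dosed in 10 points (3-fold) from 1 or 10 uM.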

pEC50: −log10 of the molar value.

One may read the pEC50 as −log10 of the EC50, conventionally taken in molar units. Take `O=C1CCC(N2Cc3cc(O[C@H]4CCN(Cc5cc(-c6ccc(C7CCOCC7)cc6)ccn5)C4)ccc3C2=O)C(=O)N1` (stereo partly drawn) [3-(5-{[(3S)-1-({4-[4-(oxan-4-yl)phenyl]pyridin-2-yl}methyl)pyrrolidin-3-yl]oxy}-1-oxo-2,3-dihydro-1H-isoindol-2-yl)piperidine-2,6-dione]: in the assay on MKN45 cells, the pEC50 was 9.72 and the “MKN45 Cell Prolif. 120 hr (Ymin-Obs)” value was 6.39. On WEE1, the “293T-LentiX WEE1-ePL Degradation 4 hr (Ymin)” value is 31 and the DC50 was 1.33 nM.

As for `Cc1cc(CN2CC[C@H](Oc3ccc4c(c3)CN(C3CCC(=O)NC3=O)C4=O)C2)ncc1OCC1CCOCC1` (stereo partly drawn) [3-(5-{[(3S)-1-({4-methyl-5-[(oxan-4-yl)methoxy]pyridin-2-yl}methyl)pyrrolidin-3-yl]oxy}-1-oxo-2,3-dihydro-1H-isoindol-2-yl)piperidine-2,6-dione], in the assay with MKN45 cells, the negative logarithm of the EC50 (pEC50) was 7.35 and the “MKN45 Cell Prolif. 120 hr (Ymin-Obs)” value was 16.9. At WEE1, the “293T-LentiX WEE1-ePL Degradation 4 hr (Ymin)” value was 42 and the DC50 was 9.71 nM.

As to `CNC1(c2ccc3cc(CN4CC[C@H](Oc5ccc6c(c5)CN(C5CCC(=O)NC5=O)C6=O)C4)ncc3c2)COC1` (stereo partly drawn) [3-(5-{[(3S)-1-({7-[3-(methylamino)oxetan-3-yl]isoquinolin-3-yl}methyl)pyrrolidin-3-yl]oxy}-1-oxo-2,3-dihydro-1H-isoindol-2-yl)piperidine-2,6-dione], in the assay on MKN45 cells, the pEC50 is 7.25 and the “MKN45 Cell Prolif. 120 hr (Ymin-Obs)” value was determined as 7.77. At WEE1, the “293T-LentiX WEE1-ePL Degradation 4 hr (Ymin)” value is listed as 33 and the DC50 worked out at 96.7 nM.

As for `O=C1CCC(N2Cc3cc(O[C@H]4CCN(Cc5cnc6ccccn56)C4)ccc3C2=O)C(=O)N1` (stereo partly drawn) [3-(5-{[(3S)-1-({imidazo[1,2-a]pyridin-3-yl}methyl)pyrrolidin-3-yl]oxy}-1-oxo-2,3-dihydro-1H-isoindol-2-yl)piperidine-2,6-dione], in the assay with MKN45 cells, the pEC50 is 6.03 and the “MKN45 Cell Prolif. 120 hr (Ymin-Obs)” value turned out to be 21.75. At WEE1, the “293T-LentiX WEE1-ePL Degradation 4 hr (Ymin)” value is recorded as 33.52 and the DC50 is 150 nM.

As for `O=C1CCC(N2Cc3cc(O[C@H]4CCN(Cc5ccc6ncccc6n5)C4)ccc3C2=O)C(=O)N1` (stereo partly drawn) [3-(5-{[(3S)-1-[(1,5-naphthyridin-2-yl)methyl]pyrrolidin-3-yl]oxy}-1-oxo-2,3-dihydro-1H-isoindol-2-yl)piperidine-2,6-dione], in the assay on MKN45 cells, the pEC50 is 5.60 and the “MKN45 Cell Prolif. 120 hr (Ymin-Obs)” value turned out to be 54.03. Besides, at WEE1, the “293T-LentiX WEE1-ePL Degradation 4 hr (Ymin)” value is given as 37 and the DC50 came to 27.9 nM.

Consider `O=C1CCC(N2Cc3cc(O[C@H]4CCN(Cc5cnc6cccnc6c5)C4)ccc3C2=O)C(=O)N1` (stereo partly drawn) [3-(5-{[(3S)-1-[(1,5-naphthyridin-3-yl)methyl]pyrrolidin-3-yl]oxy}-1-oxo-2,3-dihydro-1H-isoindol-2-yl)piperidine-2,6-dione], for which, in the assay on MKN45 cells, the pEC50 was 6.25 and the “MKN45 Cell Prolif. 120 hr (Ymin-Obs)” value is listed as 73.34. Further, on WEE1, the “293T-LentiX WEE1-ePL Degradation 4 hr (Ymin)” value was 66 and the DC50 came out at 75.4 nM.

With `O=C1CCC(N2Cc3cc(O[C@H]4CCN(Cc5cc6ncccc6cn5)C4)ccc3C2=O)C(=O)N1` (stereo partly drawn) [3-(5-{[(3S)-1-[(1,6-naphthyridin-7-yl)methyl]pyrrolidin-3-yl]oxy}-1-oxo-2,3-dihydro-1H-isoindol-2-yl)piperidine-2,6-dione], in the assay on MKN45 cells, the pEC50 was 6.02 and the “MKN45 Cell Prolif. 120 hr (Ymin-Obs)” value is 84.48. For the same compound, at WEE1, the “293T-LentiX WEE1-ePL Degradation 4 hr (Ymin)” value is listed as 67.53 and the DC50 turned out to be 122 nM.

As to `O=C1CCC(N2Cc3cc(O[C@H]4CCN(Cc5cnc6cnccc6c5)C4)ccc3C2=O)C(=O)N1` (stereo partly drawn) [3-(5-{[(3S)-1-[(1,7-naphthyridin-3-yl)methyl]pyrrolidin-3-yl]oxy}-1-oxo-2,3-dihydro-1H-isoindol-2-yl)piperidine-2,6-dione], in the assay with MKN45 cells, the pEC50 is 7.03 and the “MKN45 Cell Prolif. 120 hr (Ymin-Obs)” value came out at 9.14. Besides, at WEE1, the “293T-LentiX WEE1-ePL Degradation 4 hr (Ymin)” value is 26.94 and the DC50 was 20.8 nM.

With `O=C1CCC(N2Cc3cc(O[C@H]4CCN(Cc5cc6cccnc6cn5)C4)ccc3C2=O)C(=O)N1` (stereo partly drawn) [3-(5-{[(3S)-1-[(1,7-naphthyridin-6-yl)methyl]pyrrolidin-3-yl]oxy}-1-oxo-2,3-dihydro-1H-isoindol-2-yl)piperidine-2,6-dione], in the assay on MKN45 cells, the pEC50 is 6.99 and the “MKN45 Cell Prolif. 120 hr (Ymin-Obs)” value worked out at 9.59. Also, on WEE1, the “293T-LentiX WEE1-ePL Degradation 4 hr (Ymin)” value was 26.505 and the DC50 came out at 14.7 nM.

Turning to `O=C1CCC(N2Cc3cc(O[C@H]4CCN(Cc5ccc6cccnc6n5)C4)ccc3C2=O)C(=O)N1` (stereo partly drawn) [3-(5-{[(3S)-1-[(1,8-naphthyridin-2-yl)methyl]pyrrolidin-3-yl]oxy}-1-oxo-2,3-dihydro-1H-isoindol-2-yl)piperidine-2,6-dione], in the assay on MKN45 cells, the pEC50 is 5.99 and the “MKN45 Cell Prolif. 120 hr (Ymin-Obs)” value worked out at 65.94. Also, at WEE1, the “293T-LentiX WEE1-ePL Degradation 4 hr (Ymin)” value stood at 75 and the DC50 was determined as 292 nM.

In the case of `O=C1CCC(N2Cc3cc(O[C@H]4CCN(Cc5cnc6ncccc6c5)C4)ccc3C2=O)C(=O)N1` (stereo partly drawn) [3-(5-{[(3S)-1-[(1,8-naphthyridin-3-yl)methyl]pyrrolidin-3-yl]oxy}-1-oxo-2,3-dihydro-1H-isoindol-2-yl)piperidine-2,6-dione], in the assay with MKN45 cells, the pEC50 is 6.26 and the “MKN45 Cell Prolif. 120 hr (Ymin-Obs)” value was found to be 12.27. On WEE1, the “293T-LentiX WEE1-ePL Degradation 4 hr (Ymin)” value is given as 27.365 and the DC50 is 70.6 nM.

Turning to `CN1CCCc2c(CN3CC[C@H](Oc4ccc5c(c4)CN(C4CCC(=O)NC4=O)C5=O)C3)cncc21` (stereo partly drawn) [3-(5-{[(3S)-1-[(1-methyl-1,2,3,4-tetrahydro-1,7-naphthyridin-5-yl)methyl]pyrrolidin-3-yl]oxy}-1-oxo-2,3-dihydro-1H-isoindol-2-yl)piperidine-2,6-dione], in the assay on MKN45 cells, the pEC50 was 6.50 and the “MKN45 Cell Prolif. 120 hr (Ymin-Obs)” value is reported as 43.26. Also, at WEE1, the “293T-LentiX WEE1-ePL Degradation 4 hr (Ymin)” value was 40 and the DC50 came to 19.6 nM.

Regarding `Cn1ncc2cc(CN3CC[C@H](Oc4ccc5c(c4)CN(C4CCC(=O)NC4=O)C5=O)C3)ccc21` (stereo partly drawn) [3-(5-{[(3S)-1-[(1-methyl-1H-indazol-5-yl)methyl]pyrrolidin-3-yl]oxy}-1-oxo-2,3-dihydro-1H-isoindol-2-yl)piperidine-2,6-dione], in the assay with MKN45 cells, the pEC50 was below 5.00 and the “MKN45 Cell Prolif. 120 hr (Ymin-Obs)” value came to 86.69. In addition, at WEE1, the “293T-LentiX WEE1-ePL Degradation 4 hr (Ymin)” value is listed as 61 and the DC50 worked out at 68.8 nM.

For the compound `Cc1nc(CN2CC[C@H](Oc3ccc4c(c3)CN(C3CCC(=O)NC3=O)C4=O)C2)cc2ccccc12` (stereo partly drawn) [3-(5-{[(3S)-1-[(1-methylisoquinolin-3-yl)methyl]pyrrolidin-3-yl]oxy}-1-oxo-2,3-dihydro-1H-isoindol-2-yl)piperidine-2,6-dione], in the assay on MKN45 cells, the pEC50 was 5.30 and the “MKN45 Cell Prolif. 120 hr (Ymin-Obs)” value is 50.77. On WEE1, the “293T-LentiX WEE1-ePL Degradation 4 hr (Ymin)” value is listed as 47.56 and the DC50 stood at 31 nM.

As for `O=C1CCC(N2Cc3cc(O[C@H]4CCN(Cc5cc6cnccc6cn5)C4)ccc3C2=O)C(=O)N1` (stereo partly drawn) [3-(5-{[(3S)-1-[(2,6-naphthyridin-3-yl)methyl]pyrrolidin-3-yl]oxy}-1-oxo-2,3-dihydro-1H-isoindol-2-yl)piperidine-2,6-dione], in the assay on MKN45 cells, the pEC50 is 6.26 and the “MKN45 Cell Prolif. 120 hr (Ymin-Obs)” value is 24.28. Besides, at WEE1, the “293T-LentiX WEE1-ePL Degradation 4 hr (Ymin)” value was found to be 34.11 and the DC50 was 39.9 nM.

As to `O=C1CCC(N2Cc3cc(O[C@H]4CCN(Cc5cc6ccncc6cn5)C4)ccc3C2=O)C(=O)N1` (stereo partly drawn) [3-(5-{[(3S)-1-[(2,7-naphthyridin-3-yl)methyl]pyrrolidin-3-yl]oxy}-1-oxo-2,3-dihydro-1H-isoindol-2-yl)piperidine-2,6-dione], in the assay on MKN45 cells, the pEC50 is 7.01 and the “MKN45 Cell Prolif. 120 hr (Ymin-Obs)” value is listed as 6.92. Besides, at WEE1, the “293T-LentiX WEE1-ePL Degradation 4 hr (Ymin)” value amounted to 28.095 and the DC50 was 19.3 nM.

Take `Cc1ccc2cc(CN3CC[C@H](Oc4ccc5c(c4)CN(C4CCC(=O)NC4=O)C5=O)C3)cc(C)c2n1` (stereo partly drawn) [3-(5-{[(3S)-1-[(2,8-dimethylquinolin-6-yl)methyl]pyrrolidin-3-yl]oxy}-1-oxo-2,3-dihydro-1H-isoindol-2-yl)piperidine-2,6-dione]: in the assay with MKN45 cells, the pEC50 was 7.26 and the “MKN45 Cell Prolif. 120 hr (Ymin-Obs)” value is 13.61. In addition, on WEE1, the “293T-LentiX WEE1-ePL Degradation 4 hr (Ymin)” value is 29.33 and the DC50 is 6.44 nM.

With `O=C1CCC(N2Cc3cc(O[C@H]4CCN(Cc5ccc6nc(Cl)ccc6c5)C4)ccc3C2=O)C(=O)N1` (stereo partly drawn) [3-(5-{[(3S)-1-[(2-chloroquinolin-6-yl)methyl]pyrrolidin-3-yl]oxy}-1-oxo-2,3-dihydro-1H-isoindol-2-yl)piperidine-2,6-dione], in the assay on MKN45 cells, the pEC50 is 8.02 and the “MKN45 Cell Prolif. 120 hr (Ymin-Obs)” value was 12.57. Moreover, at WEE1, the “293T-LentiX WEE1-ePL Degradation 4 hr (Ymin)” value worked out at 29.2 and the DC50 worked out at 2.82 nM.

`O=C1CCC(N2Cc3cc(O[C@H]4CCN(Cc5ccc6nc(C7CC7)ccc6c5)C4)ccc3C2=O)C(=O)N1` (stereo partly drawn) [3-(5-{[(3S)-1-[(2-cyclopropylquinolin-6-yl)methyl]pyrrolidin-3-yl]oxy}-1-oxo-2,3-dihydro-1H-isoindol-2-yl)piperidine-2,6-dione]: in the assay with MKN45 cells, the pEC50 was 8.22 and the “MKN45 Cell Prolif. 120 hr (Ymin-Obs)” value worked out at 12.12. In addition, on WEE1, the “293T-LentiX WEE1-ePL Degradation 4 hr (Ymin)” value was 34.33 and the DC50 is 2.21 nM.
